# Test results reported in PMC12350126, “A novel carboxamide bromodomain inhibitor attenuates osteoarthritis via epigenetic repression of NF-κB and MAPK signaling” (Frontiers in Immunology, 2025).
# pKd: −log10 of the molar value.
# Key:
# [1] = target: T1, BRD2 BD1 (Homo sapiens, UniProt P25440); experiment: Biosensor binding kinetics assay (Octet), BRD2 BD1
# T1 construct: biotinylated BRD2 BD1; biotin (biotinylated protein); made in house; host or cells: Escherichia coli BL21(DE3)
# Method: Binding kinetics were assessed using the Octet® R2 system (Sartorius, Göttingen, Germany). Superstreptavidin biosensors were loaded with biotinylated BRD2 BD1, BRD2 BD2, BRD3 BD1, BRD3 BD2, BRD4 BD1, BRD4 BD2, or biotin alone (as a negative control) in PBST buffer (phosphate-buffered saline containing 0.02% Tween 20 and 5% DMSO). The sensors were then dipped into compound solutions for 10 min. To evaluate association kinetics (kon), each sensor was exposed to serial dilutions of the protein for 180 s, followed by dipping them into PBST buffer to assess dissociation kinetics (koff). For control, a separate sensor loaded with the compound was dipped into PBST alone. Competition binding assays were performed by exposing the compound-loaded sensor to mixtures of proteins and test compounds.
# [2] = system: PGE2 production in IL-1β-treated mouse articular chondrocytes; experiment: PGE2 ELISA in IL-1β-treated chondrocytes; assay type: cell-based; settings: NCD 10, 50, 100 µM, dose-dependent
# Method: NCD was supplied by Benobio Co (Gyeonggi-do, Korea), and IL‐1β was purchased from GenScript (Piscataway, NJ, USA). NCDs were dissolved in phosphate-buffered saline (PBS) for oral administration or IA injection.
# PGE2 expression was determined by enzyme-linked immunosorbent assay (ELISA) using a PGE2 Immunoassay Kit (R&D Systems, Minneapolis, MN, USA). The levels of PGE2 in the conditioned medium of articular chondrocytes were determined. Collagenase activity was measured using a VICTOR X3 Microplate Reader (PerkinElmer, Waltham, MA, USA) at the excitation/emission wavelengths of 490/530 nm following the protocol provided by the manufacturer.
# [3] = target: T2, BRD2 (BD1 + BD2) (Homo sapiens, UniProt P25440); experiment: TR-FRET assay, BRD2 (BD1 + BD2); settings: lower signal = stronger binding
# T2 construct: kits specific for BRD2 (BD1 + BD2); purchased BPS Bioscience
# Method: TR-FRET assays were conducted using kits specific for BRD2 (BD1 + BD2), BRD3 (BD1 + BD2), and BRD4 (BD1 + BD2) obtained from BPS Bioscience (San Diego, CA, USA). Bromodomain ligands were diluted in water, and master mixes were prepared by combining the diluted ligands with 1× BRD Homogeneous Assay Buffer. Thawed BRD proteins were also diluted with the same buffer. For each assay, 1.5 μL of the master mix was dispensed into wells of a microplate (Labcyte, San Jose, CA, USA), followed by the addition of 5 μL of diluted BRD protein to initiate the reaction. Plates were incubated at 20–22°C for 30–60 min. Subsequently, glutathione (GSH) acceptor beads and streptavidin-conjugated donor beads (both from PerkinElmer, Waltham, MA, USA) were diluted in 1× BRD Homogeneous Detection Buffer 1. Next, 10 μL of the acceptor bead solution was added to each well and incubated at 18°C for 30 min, followed by the addition of 10 μL of donor bead solution and a further incubation at 18°C for 15–30 min. Alpha particle counts were measured using an EnVision 2105 multimode plate reader (PerkinElmer).
# [4] = system: mouse primary articular chondrocytes; experiment: Chondrocyte viability by lactate dehydrogenase (LDH) assay; assay type: cell-based; settings: 12 h, NCD 0, 10, 20, 50, 100 µM, JQ1 different concentrations
# [5] = system: NF-κB and MAPK signaling in mouse articular chondrocytes; experiment: IL-1β-induced NF-κB and MAPK signaling in chondrocytes (western blotting, densitometry); assay type: cell-based; settings: NCD 10, 50, 100 μM pretreatment 12 h, IL-1β 1 ng/mL 10 min
# Method: The total protein was extracted from the primary cultured chondrocytes using a lysis buffer, containing 150 mM NaCl, 1% NP-40, 50 mM Tris/HCl (pH 8.0), 0.2% sodium dodecyl sulfate, and 5 mM NaF, supplemented with protease and phosphatase inhibitor mixture (Roche, Madison, WI, USA). Proteins were separated using sodium dodecyl sulfate-polyacrylamide gel electrophoresis, and western blot analysis was performed using the following antibodies: goat anti‐Cox2 (sc‐1745; Santa Cruz Biotechnology, Dallas, TX, USA), mouse anti-Erk1/2 (610408; Becton Dickinson, NJ, USA), mouse anti-IκB [9242; Cell Signaling Technology (CST), MA, USA], mouse anti-p65 (8242; CST), mouse anti-phospho-p65 (3033; CST), mouse anti-p38 (#9212; CST), mouse anti-pp38 (#9215S; CST), mouse anti-c-Jun N-terminal kinase (Jnk) (#9252S; CST), mouse anti-pJnk (#9251S; CST), and mouse anti-pErk (#9101S; CST). Each signal was visualized using a SuperSignal West Dura Kit (Thermo Fisher Scientific, Waltham, MA, USA). Density analysis (AlphaEase FC 4.0; Alpha Innotech, CA, USA) was performed to calculate the relevant band intensities. Extracellular signal-regulated kinase (Erk) was used as the loading control ([28]).
# Figure 6 NCD regulates NF-κB and MAPK signaling pathways induced by IL-1β in mouse chondrocytes. Articular chondrocytes were pretreated with NCD at different concentrations (0,10, 50, or 100 μM) for 12 h (n = 3) before being stimulated with IL-1β (1 ng/mL) for 10 min. Levels of phosphorylated Jnk (pJnk), phosphorylated Erk (pErk), and phosphorylated p38 (pp38) proteins were determined using western blotting. (A, B) Protein levels of IκB were detected using western blotting (A) and densitometry (B). JQ-1 (200 μM) was used as a positive control. All data were analyzed using one‐way analysis of variance with Bonferroni’s test and expressed as mean ± standard error of mean (SEM) (n = 3); *P < 0.05, **P < 0.01, ***P < 0.001, and ****P < 0.0001 compared to the control group.
# T1 sequence (P25440 74-180 limits assumed): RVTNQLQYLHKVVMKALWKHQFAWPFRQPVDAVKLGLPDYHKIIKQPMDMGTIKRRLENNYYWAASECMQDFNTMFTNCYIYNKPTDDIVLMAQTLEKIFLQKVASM
# T2 sequence (P25440 65-459 limits assumed): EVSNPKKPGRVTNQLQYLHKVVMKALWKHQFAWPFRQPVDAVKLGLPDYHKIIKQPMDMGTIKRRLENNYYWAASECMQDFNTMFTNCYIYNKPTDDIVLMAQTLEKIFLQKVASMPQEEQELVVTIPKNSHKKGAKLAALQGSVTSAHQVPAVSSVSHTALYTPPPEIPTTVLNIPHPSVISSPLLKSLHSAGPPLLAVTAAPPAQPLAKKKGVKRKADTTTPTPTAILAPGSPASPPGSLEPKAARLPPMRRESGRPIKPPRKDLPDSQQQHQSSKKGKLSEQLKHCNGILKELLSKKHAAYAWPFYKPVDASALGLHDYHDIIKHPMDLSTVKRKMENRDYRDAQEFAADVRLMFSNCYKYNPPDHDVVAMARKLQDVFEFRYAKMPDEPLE
smiles,measurement,setting,value
"CNC(=O)CC1C(=O)NCCN1Cc1ccc(-c2ccccc2-c2cccc3c2CN(C)C3=O)o1 (stereo not drawn) [NCD, N-methyl-2-(1-((5-(2-(2-methyl-1-oxoisoindolin-4-yl)phenyl)furan-2-yl)methyl)-3-oxopiperazin-2-yl)acetamide]",pKd,[1],7.59
same,PGE2 production,[2],significantly decreased
same,TR-FRET value,[3],96511 RLU
same,Cell viability / cytotoxicity (LDH assay),[4],no significant cytotoxic effects
same,Degradation of IκB,[5],effectively prevented
same,Phosphorylation level of ERK,[5],markedly reduced
same,Phosphorylation level of JNK,[5],markedly reduced
same,Phosphorylation of the p65 subunit,[5],significantly suppressed
same,p38 phosphorylation,[5],remained largely unaffected
